# In ChEMBL document CHEMBL4261520, “Advances in indoleamine 2,3-dioxygenase 1 medicinal chemistry” (Medchemcomm, 2017):
# Test system: Homo sapiens
# Assay: In vivo inhibition of IDO1 in malignant glioma patient assessed as reduction in intratumoral kynurenine levels relative to control
# Format: functional
smiles,measurement,value
O=C1CC(c2c[nH]c3ccc(F)cc23)C(=O)N1 (stereo unspecified) [PF-06840003],inhibition (INH),>80%
